Measurements published in the supplement of paper PMC6045584.
± gives the standard deviation of the averaged measurements.

compound: CN1CC[C@H](c2c(O)cc(O)c3c(=O)cc(-c4ccccc4Cl)oc23)[C@H](O)C1 [FLAVOPIRIDOL]; test: surviving fraction relative to DMSO-only wells; higher = less growth inhibition; conditions: 50 nM; exposure time: 5 days
Outline: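 Log-phase tumour cells were seeded at 250–500 per well in 384-well plates and, from 24 hours after seeding, exposed continuously for five days to inhibitors at 0.5, 1, 5, 10, 50, 100, 500 and 1000 nM. Surviving fraction is CellTiter-Glo luminescence normalised to the median of DMSO-only wells. Luminescence was measured after 10 minutes at room temperature, and only lines screened three times with replicate Pearson r >0.7 and median Z' >0.3 were kept.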

In order of falling surviving fraction:
1. RDES SOFT TISSUE  1.66 ± 0.12
2. HUO3N1 BONE  1.26 ± 0.052
3. OSHN BONE  1.23 ± 0.035
4. OS25HAL BONE  1.1 ± 0.036
5. SUM44 BREAST  1.08 ± 0.24
6. SNU475 LIVER  1.02 ± 0.026
7. HOSMNG BONE  1.01 ± 0.079
8. HOS BONE  0.9813 ± 0.0095
9. SCC36 HEADNECK  0.962 ± 0.086
10. U2OS BONE  0.956 ± 0.017
11. 22RV1 PROSTATE  0.897 ± 0.11
12. S68 BREAST  0.888 ± 0.29
13. MDAMB231 BREAST  0.833 ± 0.018
14. CHLA90 AUTONOMIC GANGLIA  0.826 ± 0.11
15. MCF7 BREAST  0.816 ± 0.038
16. NY BONE  0.813 ± 0.071
17. SG43 HEADNECK  0.812 ± 0.049
18. JIMT1 BREAST  0.809 ± 0.019
19. MDAMB157 BREAST  0.769 ± 0.022
20. BT20 BREAST  0.742 ± 0.12
21. CAL120 BREAST  0.73 ± 0.034
22. JURKAT HAEMATOPOIETIC AND LYMPHOID TISSUE  0.708 ± 0.022
23. PCI30 HEADNECK  0.701 ± 0.028
24. SCC003 HEADNECK  0.667 ± 0.032
25. SCC47 HEADNECK  0.665 ± 0.013
26. HU09 BONE  0.638 ± 0.051
27. SG28 HEADNECK  0.594 ± 0.089
28. HCC1806 BREAST  0.586 ± 0.038
29. HSSYII SYNOVIAL  0.564 ± 0.034
30. MDAMB436 BREAST  0.556 ± 0.026
31. NOS1 BONE  0.54 ± 0.061
32. CAL51 BREAST  0.528 ± 0.0091
33. HT1080 SOFT TISSUE  0.4973 ± 0.0011
34. SG31 HEADNECK  0.483 ± 0.057
35. LNCAP PROSTATE  0.409 ± 0.071
36. MFM223 BREAST  0.351 ± 0.032
37. CADOES1 SOFT TISSUE  0.332 ± 0.062
38. CASKI CERVIX  0.284 ± 0.028
39. SG32 HEADNECK  0.227 ± 0.063
40. HCC78 LUNG  0.151 ± 0.032
41. SJSA1 BONE  0.0583 ± 0.0059

same assay, conditions: 100 nM; exposure time: 5 days

In order of falling surviving fraction:
1. SJSA1 BONE  1.74 ± 0.06
2. RDES SOFT TISSUE  0.945 ± 0.2
3. HUO3N1 BONE  0.929 ± 0.077
4. CHLA90 AUTONOMIC GANGLIA  0.573 ± 0.072
5. SG43 HEADNECK  0.562 ± 0.12
6. HOSMNG BONE  0.498 ± 0.021
7. S68 BREAST  0.483 ± 0.068
8. SNU475 LIVER  0.438 ± 0.048
9. SCC36 HEADNECK  0.405 ± 0.0093
10. 22RV1 PROSTATE  0.405 ± 0.14
11. SCC003 HEADNECK  0.392 ± 0.14
12. OSHN BONE  0.382 ± 0.041
13. MDAMB231 BREAST  0.372 ± 0.028
14. BT20 BREAST  0.359 ± 0.012
15. HOS BONE  0.352 ± 0.02
16. CAL120 BREAST  0.314 ± 0.051
17. MDAMB157 BREAST  0.3 ± 0.027
18. SUM44 BREAST  0.283 ± 0.012
19. JIMT1 BREAST  0.2 ± 0.029
20. HT1080 SOFT TISSUE  0.193 ± 0.024
21. MDAMB436 BREAST  0.183 ± 0.024
22. MCF7 BREAST  0.167 ± 0.011
23. SCC47 HEADNECK  0.153 ± 0.043
24. SG31 HEADNECK  0.147 ± 0.038
25. CADOES1 SOFT TISSUE  0.146 ± 0.054
26. HSSYII SYNOVIAL  0.145 ± 0.017
27. JURKAT HAEMATOPOIETIC AND LYMPHOID TISSUE  0.119 ± 0.0035
28. MFM223 BREAST  0.119 ± 0.045
29. U2OS BONE  0.112 ± 0.015
30. OS25HAL BONE  0.101 ± 0.015
31. CAL51 BREAST  0.0968 ± 0.014
32. HCC1806 BREAST  0.093 ± 0.0078
33. PCI30 HEADNECK  0.085 ± 0.0053
34. NOS1 BONE  0.083 ± 0.0027
35. NY BONE  0.0513 ± 0.01
36. SG28 HEADNECK  0.0495 ± 0.0064
37. SG32 HEADNECK  0.048 ± 0.01
38. HCC78 LUNG  0.0467 ± 0.0059
39. HU09 BONE  0.0337 ± 0.0032
40. CASKI CERVIX  0.0293 ± 0.0015
41. LNCAP PROSTATE  0.028 ± 0.0036

same assay, conditions: 500 nM; exposure time: 5 days

In order of falling surviving fraction:
1. SJSA1 BONE  1.64 ± 0.076
2. MDAMB436 BREAST  0.185 ± 0.0025
3. MCF7 BREAST  0.163 ± 0.024
4. 22RV1 PROSTATE  0.124 ± 0.11
5. SUM44 BREAST  0.119 ± 0.039
6. SCC003 HEADNECK  0.0627 ± 0.0064
7. HT1080 SOFT TISSUE  0.061 ± 0.003
8. HOSMNG BONE  0.059 ± 0.007
9. HUO3N1 BONE  0.0483 ± 0.0011
10. OS25HAL BONE  0.048 ± 0.013
11. RDES SOFT TISSUE  0.0467 ± 0.0025
12. JIMT1 BREAST  0.0467 ± 0.0053
13. SG31 HEADNECK  0.0443 ± 0.024
14. MFM223 BREAST  0.0438 ± 0.021
15. MDAMB157 BREAST  0.0433 ± 0.016
16. LNCAP PROSTATE  0.043 ± 0.0027
17. CAL120 BREAST  0.0425 ± 0.003
18. SNU475 LIVER  0.0423 ± 0.0046
19. MDAMB231 BREAST  0.0403 ± 0.0017
20. SCC47 HEADNECK  0.039 ± 0.0017
21. BT20 BREAST  0.038 ± 0.0062
22. S68 BREAST  0.0377 ± 0.0021
23. HOS BONE  0.0367 ± 0.0072
24. SCC36 HEADNECK  0.036 ± 0.0035
25. CADOES1 SOFT TISSUE  0.0357 ± 0.0051
26. OSHN BONE  0.0357 ± 0.0055
27. U2OS BONE  0.033 ± 0.0017
28. PCI30 HEADNECK  0.032 ± 0.0017
29. SG28 HEADNECK  0.0315 ± 0.00071
30. JURKAT HAEMATOPOIETIC AND LYMPHOID TISSUE  0.031 ± 0.001
31. NOS1 BONE  0.031 ± 0.004
32. CAL51 BREAST  0.0297 ± 0.00058
33. SG32 HEADNECK  0.0283 ± 0.013
34. SG43 HEADNECK  0.028 ± 0.0062
35. CHLA90 AUTONOMIC GANGLIA  0.0277 ± 0.0015
36. NY BONE  0.025 ± 0.001
37. HU09 BONE  0.024
38. CASKI CERVIX  0.022 ± 0.001
39. HSSYII SYNOVIAL  0.0215 ± 0.0005
40. HCC1806 BREAST  0.0207 ± 0.00058
41. HCC78 LUNG  0.0207 ± 0.00058

same assay, conditions: 1000 nM; exposure time: 5 days

In order of rising surviving fraction:
1. HCC78 LUNG  0.02
2. HSSYII SYNOVIAL  0.0212 ± 0.00058
3. HCC1806 BREAST  0.0217 ± 0.00058
4. SG32 HEADNECK  0.0237 ± 0.0046
5. NY BONE  0.024 ± 0.001
6. CHLA90 AUTONOMIC GANGLIA  0.0247 ± 0.00058
7. HU09 BONE  0.025 ± 0.0017
8. CASKI CERVIX  0.0253 ± 0.00058
9. SG31 HEADNECK  0.027 ± 0.0046
10. U2OS BONE  0.03 ± 0.001
11. JURKAT HAEMATOPOIETIC AND LYMPHOID TISSUE  0.0303 ± 0.0011
12. PCI30 HEADNECK  0.0303 ± 0.00058
13. CAL51 BREAST  0.03133 ± 0.00029
14. SCC36 HEADNECK  0.032 ± 0.001
15. SG28 HEADNECK  0.032 ± 0.0028
16. OSHN BONE  0.0323 ± 0.0075
17. SG43 HEADNECK  0.033 ± 0.0076
18. HOS BONE  0.035 ± 0.003
19. SCC47 HEADNECK  0.0353 ± 0.0029
20. MDAMB231 BREAST  0.0366 ± 0.0017
21. S68 BREAST  0.0367 ± 0.0055
22. BT20 BREAST  0.0367 ± 0.004
23. JIMT1 BREAST  0.0375 ± 0.0027
24. CADOES1 SOFT TISSUE  0.038
25. RDES SOFT TISSUE  0.0383 ± 0.0025
26. MDAMB157 BREAST  0.0383 ± 0.0076
27. NOS1 BONE  0.0383 ± 0.0084
28. HUO3N1 BONE  0.039 ± 0.0061
29. LNCAP PROSTATE  0.0397 ± 0.0011
30. CAL120 BREAST  0.0403 ± 0.0016
31. SNU475 LIVER  0.0407 ± 0.0029
32. OS25HAL BONE  0.0443 ± 0.012
33. SCC003 HEADNECK  0.0573 ± 0.0032
34. HOSMNG BONE  0.0577 ± 0.0065
35. HT1080 SOFT TISSUE  0.0633 ± 0.0021
36. MFM223 BREAST  0.0642 ± 0.061
37. SUM44 BREAST  0.104 ± 0.036
38. 22RV1 PROSTATE  0.118 ± 0.086
39. MCF7 BREAST  0.157 ± 0.0056
40. MDAMB436 BREAST  0.182 ± 0.0028
41. SJSA1 BONE  0.776 ± 0.074
